Measured values reported in the NIST ThermoML archive (doi:10.1016/j.jct.2019.06.017).
Several values for one entry are separate records, joined by “and”; a condition that tells them apart may be missing. Equal entries are not always repeated. ± gives the expanded uncertainty stated by the source.

Assay: Boiling temperature at pressure P
Conditions: Liquid, Ebulliometric method (Recirculating still)

| Compound | Boiling temperature at pressure P (2.8 kPa) [°C] | Boiling temperature at pressure P (4.8 kPa) | Boiling temperature at pressure P (9.8 kPa) [°C] | Boiling temperature at pressure P (19.8 kPa) [°C] | Boiling temperature at pressure P (29.8 kPa) [°C] | Boiling temperature at pressure P (39.8 kPa) [°C] | Boiling temperature at pressure P (49.8 kPa) [°C] | Boiling temperature at pressure P (59.8 kPa) [°C] | Boiling temperature at pressure P (69.8 kPa) [°C] | Boiling temperature at pressure P (79.8 kPa) [°C] | Boiling temperature at pressure P (89.8 kPa) [°C] | other results |
| --- | --- | --- | --- | --- | --- | --- | --- | --- | --- | --- | --- | --- |
| OCCN1CCCC1 [1-(2-hydroxyethyl)pyrrolidine] | 87.5 ± 13 | 99.1 ± 8.8 °C | 115.7 ± 4.9 | 132.4 ± 3.2 | 144 ± 2.3 | 153.0 ± 1.8 | 159.5 ± 1.4 | 165.0 ± 1.2 | 169.5 ± 1 | 173.8 ± 0.8 | 176.7 ± 0.7 |  |
| CCN(CC)CCCO [3-diethylamino-1-propanol] | 87.1 ± 6 |  |  | 132.2 ± 3.5 |  |  |  |  | 169.1 ± 1 |  |  | Boiling temperature at pressure P (1.8 kPa): 80.8 ± 6.5 °C; Boiling temperature at pressure P (22.3 kPa): 136.1 ± 3.1 °C; Boiling temperature at pressure P (24.8 kPa): 139.0 ± 2 °C; Boiling temperature at pressure P (34.8 kPa): 147.1 ± 1.7 °C; Boiling temperature at pressure P (44.8 kPa): 154.2 ± 1.5 °C; Boiling temperature at pressure P (54.8 kPa): 160.2 ± 1.5 °C; Boiling temperature at pressure P (64.8 kPa): 167.0 ± 1.4 °C |
| CN(C)CCCO [3-dimethylamino-1-propanol] |  | 79.2 ± 7.2 °C and 79.8 ± 7 °C | 95.2 ± 5.9 | 112.7 ± 2.7 | 123.7 ± 2.2 | 132 ± 1.7 | 138.5 ± 1.4 | 144.1 ± 1.2 | 148.6 ± 1.1 | 153.2 ± 1 | 156.8 ± 0.9 | Boiling temperature at pressure P (14.8 kPa): 105.4 ± 4 °C; Boiling temperature at pressure P (99.8 kPa): 160.6 ± 0.9 °C |
| O [water] |  |  | 45.2 ± 3.3 | 60 ± 2.7 | 69.0 ± 1.8 | 75.8 ± 1.4 | 81.2 ± 1.2 | 86.0 ± 1 | 90.0 ± 0.9 | 93.6 ± 0.7 |  | Boiling temperature at pressure P (100.1 kPa): 99.5 ± 0.7 °C |
